Source: patent US11000033B2, “Ketone or oxime compound, and herbicide” (NISSAN CHEMICAL CORPORATION, priority 2014, dated 2021)

What was measured:
Assay type in all cases: in vivo
[1] = system: Scirpus juncoides; assay: Test Example 2: herbicidal activity, application during weed generation in submerged conditions (symbol B); conditions: Table 23; application herbicide amount 320 g/ha; grade 0-5 by criteria of Test Example 1
Outline: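 Scoring of herbicidal effect took place 3 weeks after treatment, using the criteria of the earlier test. Treatment was water-surface application of diluted emulsifiable compound at a set dose. Plants were at one- to two-leaf stage in submerged alluvial soil (4 cm depth), greenhouse 25-30° C.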

[2] = system: Abutilon theophrasti; assay: Test Example 5: herbicidal effect by foliage application, plastic box (symbol M); conditions: 320 g/ha, 3 weeks after application
Outline: (§1)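 Sowing in sterilized diluvial soil, 14 days' greenhouse growth at 25° C. to 30° C., then uniform small-sprayer foliar application of aqueous emulsion dilution; plants scored three weeks afterwards.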

[3] = system: Echinochloa crus-galli var. crus-galli; assay: Test Example 5: herbicidal effect by foliage application, plastic box (symbol H); conditions: 320 g/ha, 3 weeks after application
Outline: as §1

[4] = system: beet; assay: Test Example 4: effect on crop by soil treatment (symbol f); conditions: application herbicide amount 320 g/ha
Outline: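 Crop seeds, among them rice, wheat, beet and rapeseed, were sown in sterilized diluvial soil and covered with about 1.5 cm of soil. Boxes were kept in a greenhouse at 25° C. to 30° C. for plant growth.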

[5] = system: rice plant; assay: Test Example 5: effect on crop by foliage application, plastic box (symbol b); conditions: 320 g/ha, 3 weeks after application
Outline: (§2)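 Greenhouse test at 25° C. to 30° C. Seeds of crops and weeds were spot-sown in boxes of sterilized diluvial soil under roughly 1.5 cm soil cover, then grown for foliage treatment.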

[6] = system: Alopecurus myosuroides; assay: Test Example 5: herbicidal effect by foliage application, plastic box (symbol J); conditions: 320 g/ha, 3 weeks after application
Outline: as §1

[7] = system: Apera spica-venti; assay: Test Example 5: herbicidal effect by foliage application, plastic box (symbol L); conditions: 320 g/ha, 3 weeks after application
Outline: as §1

[8] = system: Digitaria ciliaris; assay: Test Example 4: herbicidal effect by soil treatment (symbol F); conditions: application herbicide amount 320 g/ha
Outline: (§3)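 Seeds were sown in sterilized diluvial soil, covered with about 1.5 cm of soil, and the soil surface was sprayed with a water-diluted emulsion of the compound at a predetermined rate. Plants grew in a greenhouse at 25° C. to 30° C.; effects were scored visually 3 weeks after application.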

[9] = system: Monochoria vaginalis; assay: Test Example 1: herbicidal activity, application before weed generation in submerged conditions (symbol C); conditions: application herbicide amount 320 g/ha
Outline: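 Paddy pre-emergence test. Formulated emulsion, water-diluted to a predetermined rate, is applied to floodwater on sowing day; rice transplanted at 2.5 leaves. Effect read at 3 weeks on a 0–5 herbicidal-ratio scale.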

[10] = system: Echinochloa crus-galli var. crus-galli; assay: Test Example 4: herbicidal effect by soil treatment (symbol H); conditions: application herbicide amount 320 g/ha
Outline: as §3

[11] = system: rapeseed; assay: Test Example 5: effect on crop by foliage application, plastic box (symbol g); conditions: 320 g/ha, 3 weeks after application
Outline: as §2

Row | Compound | Herbicidal effect grade, B: Scirpus juncoides [1] | M: Abutilon theophrasti, herbicidal effect grade [2] | H: Echinochloa crus-galli var. crus-galli, herbicidal effect grade [3] | f: beet, effect on crop grade [4] | b: directly sowed rice plant, effect on crop grade [5] | J: Alopecurus myosuroides, herbicidal effect grade [6] | L: Apera spica-venti, herbicidal effect grade [7] | F: Digitaria ciliaris, herbicidal effect grade [8] | Herbicidal effect grade, C: Monochoria vaginalis [9] | H: Echinochloa crus-galli var. crus-galli, herbicidal effect grade [10] | g: rapeseed, effect on crop grade [11] | F (Digitaria ciliaris) herbicidal effect grade [8] | H (Echinochloa crus-galli var. crus-galli) herbicidal effect grade [10] | f (beet) effect on crop grade [4]
1 | CCC(CCC1CC(O)=C(c2c(C)cc(C)cc2C)C1=O)=NOC (mixture of isomers) [4-001] | 0 (Herbicidal ratio of 5% or lower (almost no effect)) | 0 (Herbicidal ratio of 5% or lower (almost no effect)) | 2 (Herbicidal ratio of 20% or higher and lower than 40%) | 0 (Herbicidal ratio of 5% or lower (almost no effect)) | 4 (Herbicidal ratio of 70% or higher and lower than 90%) | 5 (Herbicidal ratio of 90% or more (almost completely withered)) | 2 (Herbicidal ratio of 20% or higher and lower than 40%) | 2 (Herbicidal ratio of 20% or higher and lower than 40%) | 0 (Herbicidal ratio of 5% or lower (almost no effect)) | 0 (Herbicidal ratio of 5% or lower (almost no effect)) | – | – | – | –
2 | CON=C(C)CC1CC(O)=C(c2c(C)cc(-c3ccc(Cl)cc3)cc2C)C1=O (mixture of isomers) [6-029] | 3 (Herbicidal ratio of 40% or higher and lower than 70%) | 4 (Herbicidal ratio of 70% or higher and lower than 90%) | 5 (Herbicidal ratio of 90% or more (almost completely withered)) | 0 (Herbicidal ratio of 5% or lower (almost no effect)) | 5 (Herbicidal ratio of 90% or more (almost completely withered)) | 5 (Herbicidal ratio of 90% or more (almost completely withered)) | 5 (Herbicidal ratio of 90% or more (almost completely withered)) | 5 (Herbicidal ratio of 90% or more (almost completely withered)) | 3 (Herbicidal ratio of 40% or higher and lower than 70%) | 5 (Herbicidal ratio of 90% or more (almost completely withered)) | 4 (Herbicidal ratio of 70% or higher and lower than 90%) | – | – | –
3 | C#CCOC1=C(c2c(C)cc(C)cc2C)C(=O)C(CC(C)=NOC)C1 (stereo not shown) [1-008] | 2 (Herbicidal ratio of 20% or higher and lower than 40%) | 2 (Herbicidal ratio of 20% or higher and lower than 40%) | 4 (Herbicidal ratio of 70% or higher and lower than 90%) | – | 4 (Herbicidal ratio of 70% or higher and lower than 90%) | 5 (Herbicidal ratio of 90% or more (almost completely withered)) | 4 (Herbicidal ratio of 70% or higher and lower than 90%) | – | 0 (Herbicidal ratio of 5% or lower (almost no effect)) | – | 3 (Herbicidal ratio of 40% or higher and lower than 70%) | 5 (Herbicidal ratio of 90% or more (almost completely withered)) | 4 (Herbicidal ratio of 70% or higher and lower than 90%) | –
4 | CON=C(C)CC1CC(OCCSC)=C(c2c(C)cc(C)cc2C)C1=O (stereo not shown) [1-011] | 0 (Herbicidal ratio of 5% or lower (almost no effect)) | 0 (Herbicidal ratio of 5% or lower (almost no effect)) | 0 (Herbicidal ratio of 5% or lower (almost no effect)) | – | 2 (Herbicidal ratio of 20% or higher and lower than 40%) | 4 (Herbicidal ratio of 70% or higher and lower than 90%) | 5 (Herbicidal ratio of 90% or more (almost completely withered)) | – | 0 (Herbicidal ratio of 5% or lower (almost no effect)) | – | 4 (Herbicidal ratio of 70% or higher and lower than 90%) | 0 (Herbicidal ratio of 5% or lower (almost no effect)) | 0 (Herbicidal ratio of 5% or lower (almost no effect)) | 0 (Herbicidal ratio of 5% or lower (almost no effect))
5 | CON=C(C)CC1CC(OC(=O)OC)=C(c2c(C)cc(C)cc2C)C1=O (stereo not shown) [1-014] | 3 (Herbicidal ratio of 40% or higher and lower than 70%) | 5 (Herbicidal ratio of 90% or more (almost completely withered)) | 5 (Herbicidal ratio of 90% or more (almost completely withered)) | – | 5 (Herbicidal ratio of 90% or more (almost completely withered)) | 5 (Herbicidal ratio of 90% or more (almost completely withered)) | 5 (Herbicidal ratio of 90% or more (almost completely withered)) | – | 2 (Herbicidal ratio of 20% or higher and lower than 40%) | – | 4 (Herbicidal ratio of 70% or higher and lower than 90%) | 5 (Herbicidal ratio of 90% or more (almost completely withered)) | 5 (Herbicidal ratio of 90% or more (almost completely withered)) | –
6 | Cc1cc(C)c(C2=C(O)CC(CC(=O)C(C)C)C2=O)c(C)c1 (stereo not shown) [2-016] | 0 (Herbicidal ratio of 5% or lower (almost no effect)) | 4 (Herbicidal ratio of 70% or higher and lower than 90%) | 5 (Herbicidal ratio of 90% or more (almost completely withered)) | – | 5 (Herbicidal ratio of 90% or more (almost completely withered)) | 5 (Herbicidal ratio of 90% or more (almost completely withered)) | 4 (Herbicidal ratio of 70% or higher and lower than 90%) | 5 (Herbicidal ratio of 90% or more (almost completely withered)) | 0 (Herbicidal ratio of 5% or lower (almost no effect)) | 5 (Herbicidal ratio of 90% or more (almost completely withered)) | 4 (Herbicidal ratio of 70% or higher and lower than 90%) | – | – | –
7 | CCC(=O)CCC1CC(O)=C(c2c(C)cc(C)cc2C)C1=O (stereo not shown) [5-001] | 0 (Herbicidal ratio of 5% or lower (almost no effect)) | 0 (Herbicidal ratio of 5% or lower (almost no effect)) | 3 (Herbicidal ratio of 40% or higher and lower than 70%) | – | 4 (Herbicidal ratio of 70% or higher and lower than 90%) | 5 (Herbicidal ratio of 90% or more (almost completely withered)) | 4 (Herbicidal ratio of 70% or higher and lower than 90%) | 4 (Herbicidal ratio of 70% or higher and lower than 90%) | 0 (Herbicidal ratio of 5% or lower (almost no effect)) | 1 (Herbicidal ratio of 5% or higher and lower than 20%) | 0 (Herbicidal ratio of 5% or lower (almost no effect)) | – | – | –
8 | CCC(=O)CCC1CC(OC)=C(c2c(C)cc(C)cc2C)C1=O (stereo not shown) [5-002] | 0 (Herbicidal ratio of 5% or lower (almost no effect)) | 0 (Herbicidal ratio of 5% or lower (almost no effect)) | 0 (Herbicidal ratio of 5% or lower (almost no effect)) | 0 (Herbicidal ratio of 5% or lower (almost no effect)) | 0 (Herbicidal ratio of 5% or lower (almost no effect)) | 0 (Herbicidal ratio of 5% or lower (almost no effect)) | 0 (Herbicidal ratio of 5% or lower (almost no effect)) | 0 (Herbicidal ratio of 5% or lower (almost no effect)) | 0 (Herbicidal ratio of 5% or lower (almost no effect)) | 0 (Herbicidal ratio of 5% or lower (almost no effect)) | – | – | – | –
